Test results from PubChem BioAssay AID1745844 (Carcinogenic Potency Database (CPDB), 2022).
Several values for one entry are separate records, joined by “and”; a condition that tells them apart may be missing. Identical values can stand only once. Activity calls are given as the source filed them. No rule for the calls is given here.

Tested on: rodent lifetime carcinogenesis bioassay, tumor incidence TD50
Experiment: chronic cancer bioassays in animals – CPDB, compiled studies (AID 1745844)

In the case of `Oc1ccccc1`, the carcinogen call (mouse, strain B6C3F1, females, in drinking water, site: any site (literature study), lesion: several types, types named in the paper, dosed 103 weeks, study length 104 weeks) is reported as “negative (inactive)”, the TD50 (mouse, strain B6C3F1, females, in drinking water, site: lung, lesion: alveolar/bronchiolar adenoma + alveolar/bronchiolar carcinoma, dosed 103 weeks, study length 104 weeks) is reported as 18500 mg/kg/day and the carcinogen call (mouse, strain B6C3F1, males, in drinking water, site: any site (literature study), lesion: several types, types named in the paper, dosed 103 weeks, study length 104 weeks) is reported as “negative (inactive)”. The TD50 (mouse, strain B6C3F1, males, in drinking water, site: liver, lesion: hepatocellular adenoma + hepatocellular carcinoma + neoplastic nodule, dosed 103 weeks, study length 104 weeks) was 2450 mg/kg/day, the TD50 (mouse, strain B6C3F1, males, in drinking water, site: lung, lesion: alveolar/bronchiolar adenoma + alveolar/bronchiolar carcinoma, dosed 103 weeks, study length 104 weeks) was 8290 mg/kg/day and the carcinogen call (rat, strain Fischer 344, females, in drinking water, site: any site (literature study), lesion: several types, types named in the paper, dosed 103 weeks, study length 104 weeks) was “negative (inactive)”. The TD50 (rat, strain Fischer 344, males, in drinking water, site: all sites, lesion: leukemia + lymphoma, dosed 103 weeks, study length 104 weeks) was 133 mg/kg/day, the TD50 (rat, strain Fischer 344, males, in drinking water, site: all sites, lesion: leukemia, dosed 103 weeks, study length 104 weeks) was 143 mg/kg/day and the TD50 (rat, strain Fischer 344, males, in drinking water, site: all sites, lesion: monocytic leukemia, dosed 103 weeks, study length 104 weeks) was 143 mg/kg/day. The TD50 (rat, strain Fischer 344, males, in drinking water, site: thyroid gland, lesion: c-cell carcinoma, dosed 103 weeks, study length 104 weeks) was 420 mg/kg/day (inactive).

With `[Cu+2].[O-]c1cccc2cccnc12.[O-]c1cccc2cccnc12` the TD50 (mouse, strain B6AKF1, females, oral dosing, site: any site (literature study), lesion: several types, types named in the paper, dosed 76 weeks, study length 76 weeks) was 2490 mg/kg/day (inactive), the carcinogen call (mouse, strain B6AKF1, females, oral dosing, site: liver, lesion: hepatoma, dosed 76 weeks, study length 76 weeks) was “negative (inactive)” and the carcinogen call (mouse, strain B6AKF1, females, oral dosing, site: lung, lesion: adenoma, dosed 76 weeks, study length 76 weeks) was “negative (inactive)”. The TD50 (mouse, strain B6AKF1, males, oral dosing, site: any site (literature study), lesion: several types, types named in the paper, dosed 76 weeks, study length 76 weeks) was 11200 mg/kg/day (inactive), the TD50 (mouse, strain B6AKF1, males, oral dosing, site: liver, lesion: hepatoma, dosed 76 weeks, study length 76 weeks) was 967 mg/kg/day (inactive) and the carcinogen call (mouse, strain B6AKF1, males, oral dosing, site: lung, lesion: adenoma, dosed 76 weeks, study length 76 weeks) was “negative (inactive)”. For the same compound, the TD50 (mouse, strain B6C3F1, females, oral dosing, site: any site (literature study), lesion: several types, types named in the paper, dosed 76 weeks, study length 76 weeks) was 2490 mg/kg/day (inactive), the carcinogen call (mouse, strain B6C3F1, females, oral dosing, site: liver, lesion: hepatoma, dosed 76 weeks, study length 76 weeks) was “negative (inactive)” and the carcinogen call (mouse, strain B6C3F1, females, oral dosing, site: lung, lesion: several types, types named in the paper, dosed 76 weeks, study length 76 weeks) was “negative (inactive)”. The TD50 (mouse, strain B6C3F1, males, oral dosing, site: any site (literature study), lesion: several types, types named in the paper, dosed 76 weeks, study length 76 weeks) was 2050 mg/kg/day (inactive), the carcinogen call (mouse, strain B6C3F1, males, oral dosing, site: liver, lesion: hepatoma, dosed 76 weeks, study length 76 weeks) was “negative (inactive)” and the carcinogen call (mouse, strain B6C3F1, males, oral dosing, site: lung, lesion: several types, types named in the paper, dosed 76 weeks, study length 76 weeks) was “negative (inactive)”.

For `CN(CCc1ccccc1)N=O`, the TD50 (rat, strain Fischer 344, males, in drinking water, site: esophagus, lesion: several types, types named in the paper, dosed 32 weeks, study length 127 weeks) was 0.0401 mg/kg/day, the TD50 (rat, strain Fischer 344, males, in drinking water, site: esophagus, lesion: several types, types named in the paper, dosed 104 weeks, study length 127 weeks) was 0.0422 mg/kg/day and the TD50 (rat, strain Fischer 344, males, in drinking water, site: forestomach, lesion: basal-cell carcinoma, dosed 32 weeks, study length 127 weeks) was 2.57 mg/kg/day. It also gave a TD50 (rat, strain Fischer 344, males, in drinking water, site: forestomach, lesion: basal-cell carcinoma, dosed 104 weeks, study length 127 weeks) of 0.0422 mg/kg/day, a TD50 (rat, strain Fischer 344, males, in drinking water, site: forestomach, lesion: basal-cell papilloma, dosed 32 weeks, study length 127 weeks) of 2.21 mg/kg/day and a TD50 (rat, strain Fischer 344, males, in drinking water, site: liver, lesion: hyperplastic nodule, dosed 104 weeks, study length 127 weeks) of 0.184 mg/kg/day. The carcinogen call (rat, strain Fischer 344, males, in drinking water, site: tongue, lesion: basal-cell carcinoma, dosed 32 weeks, study length 127 weeks) was “positive”, the TD50 (rat, strain Fischer 344, males, in drinking water, site: tongue, lesion: basal-cell carcinoma, dosed 104 weeks, study length 127 weeks) was 0.184 mg/kg/day and the TD50 (rat, strain Fischer 344, males, in drinking water, site: upper gastrointestinal tract, lesion: several types, types named in the paper, dosed 32 weeks, study length 127 weeks) was 0.00788 mg/kg/day. It also gave a TD50 (rat, strain Fischer 344, males, in drinking water, site: upper gastrointestinal tract, lesion: several types, types named in the paper, dosed 104 weeks, study length 127 weeks) of 0.0136 mg/kg/day.

With `O=NN1CCCC1c1ccc[n+]([O-])c1` (configuration not stated) the TD50 (hamster, strain Syrian Golden, females, in drinking water, site: liver, lesion: angiosarcoma, dosed 31 weeks, study length 96 weeks) was 39 mg/kg/day (inactive), the TD50 (rat, strain Fischer 344, females, in drinking water, site: esophagus, lesion: several types, types named in the paper, dosed 36 weeks, study length 104 weeks) was 5.65 mg/kg/day and the TD50 (rat, strain Fischer 344, females, in drinking water, site: nasal cavity, lesion: several types, types named in the paper, dosed 36 weeks, study length 104 weeks) was 1.86 mg/kg/day. For the same compound, the TD50 (rat, strain Fischer 344, males, in drinking water, site: esophagus, lesion: papilloma, dosed 36 weeks, study length 104 weeks) was 2.64 mg/kg/day, the TD50 (rat, strain Fischer 344, males, in drinking water, site: esophagus, lesion: several types, types named in the paper, dosed 36 weeks, study length 104 weeks) was 1.63 mg/kg/day and the TD50 (rat, strain Fischer 344, males, in drinking water, site: nasal cavity, lesion: malignant tumor, dosed 36 weeks, study length 104 weeks) was 1.63 mg/kg/day. The TD50 (rat, strain Fischer 344, males, in drinking water, site: nasal cavity, lesion: papilloma, dosed 36 weeks, study length 104 weeks) was 2.64 mg/kg/day and the TD50 (rat, strain Fischer 344, males, in drinking water, site: nasal cavity, lesion: several types, types named in the paper, dosed 36 weeks, study length 104 weeks) was 0.573 mg/kg/day.

`CC[C@@H]1NC(=O)[C@@H]2[C@H](Cl)[C@H](Cl)CN2C(=O)[C@H](CO)NC(=O)C[C@H](c2ccccc2)NC(=O)[C@H](CO)NC1=O` was tested, and the TD50 (mouse, strain ddNi, males, in feed, site: liver, lesion: hepatoma, dosed 160 weeks, study length 160 weeks) was 99.5 mg/kg/day, the TD50 (mouse, strain ddNi, males, in feed, site: liver, lesion: liver-cell adenoma, dosed 160 weeks, study length 160 weeks) was 48.6 mg/kg/day and the TD50 (mouse, strain ddNi, males, in feed, site: liver, lesion: liver-cell carcinoma, dosed 160 weeks, study length 160 weeks) was 98.9 mg/kg/day. It also gave a TD50 (mouse, strain ddNi, males, in feed, site: liver, lesion: several types, types named in the paper, dosed 160 weeks, study length 160 weeks) of 23.6 mg/kg/day.

For `CC(=O)OC1CC(C)OC(C)O1` (configuration not stated), the TD50 (mouse, strain B6C3F1, females, by gavage, site: any site (literature study), lesion: several types, types named in the paper, dosed 103 weeks, study length 104 weeks) was 3380 mg/kg/day (inactive), the TD50 (mouse, strain B6C3F1, females, by gavage, site: lung, lesion: alveolar/bronchiolar adenoma + alveolar/bronchiolar carcinoma, dosed 103 weeks, study length 104 weeks) was 10400 mg/kg/day and the TD50 (mouse, strain B6C3F1, males, by gavage, site: any site (literature study), lesion: several types, types named in the paper, dosed 103 weeks, study length 104 weeks) was 1820 mg/kg/day. It also gave a TD50 (mouse, strain B6C3F1, males, by gavage, site: forestomach, lesion: squamous-cell carcinoma + squamous-cell papilloma, dosed 103 weeks, study length 104 weeks) of 1440 mg/kg/day, a TD50 (mouse, strain B6C3F1, males, by gavage, site: liver, lesion: hepatocellular adenoma + hepatocellular carcinoma + neoplastic nodule, dosed 103 weeks, study length 104 weeks) of 1180 mg/kg/day and a TD50 (mouse, strain B6C3F1, males, by gavage, site: lung, lesion: alveolar/bronchiolar adenoma + alveolar/bronchiolar carcinoma, dosed 103 weeks, study length 104 weeks) of 1450 mg/kg/day. For the same compound, the carcinogen call (rat, strain Fischer 344, females, by gavage, site: any site (literature study), lesion: several types, types named in the paper, dosed 103 weeks, study length 104 weeks) was “negative (inactive)”, the TD50 (rat, strain Fischer 344, females, by gavage, site: liver, lesion: hepatocellular adenoma + hepatocellular carcinoma + neoplastic nodule, dosed 103 weeks, study length 104 weeks) was 2430 mg/kg/day and the carcinogen call (rat, strain Fischer 344, males, by gavage, site: any site (literature study), lesion: several types, types named in the paper, dosed 103 weeks, study length 104 weeks) was “negative (inactive)”. The TD50 (rat, strain Wistar, males, in drinking water, site: all sites, lesion: lymphosarcoma, dosed 87 weeks, study length 100 weeks) was 29800 mg/kg/day, the TD50 (rat, strain Wistar, males, in drinking water, site: all sites, lesion: myelogenous leukemia, dosed 87 weeks, study length 100 weeks) was 6770 mg/kg/day and the TD50 (rat, strain Wistar, males, in drinking water, site: any site (literature study), lesion: several types, types named in the paper, dosed 87 weeks, study length 100 weeks) was 419 mg/kg/day. It also gave a TD50 (rat, strain Wistar, males, in drinking water, site: kidney, lesion: papillary transitional-cell carcinoma, dosed 87 weeks, study length 100 weeks) of 6770 mg/kg/day, a TD50 (rat, strain Wistar, males, in drinking water, site: liver, lesion: hepatoma, dosed 87 weeks, study length 100 weeks) of 716 mg/kg/day and a TD50 (rat, strain Wistar, males, in drinking water, site: skin, lesion: epidermoid carcinoma, dosed 87 weeks, study length 100 weeks) of 6770 mg/kg/day. It also gave a TD50 (rat, strain Wistar, males, in drinking water, site: subcutaneous tissue, lesion: fibrosarcoma, dosed 87 weeks, study length 100 weeks) of 6770 mg/kg/day.

With `CN(N=O)c1ncnc2nc[nH]c12` the TD50 (mouse, strain Swiss CD-1, females, in drinking water, site: liver, lesion: several types, types named in the paper, dosed 104 weeks, study length 104 weeks) was 63.2 mg/kg/day, the TD50 (mouse, strain Swiss CD-1, females, in drinking water, site: mammary gland, lesion: carcinoma, dosed 104 weeks, study length 104 weeks) was 28.7 mg/kg/day and the TD50 (mouse, strain Swiss CD-1, females, in drinking water, site: reproductive tract, lesion: several types, types named in the paper, dosed 104 weeks, study length 104 weeks) was 15.8 mg/kg/day. For the same compound, the TD50 (mouse, strain Swiss CD-1, females, in drinking water, site: uterus, lesion: one or several types, types not named, dosed 104 weeks, study length 104 weeks) was 84.9 mg/kg/day, the TD50 (mouse, strain Swiss CD-1, males, in drinking water, site: liver, lesion: several types, types named in the paper, dosed 104 weeks, study length 104 weeks) was 62.6 mg/kg/day and the TD50 (mouse, strain Swiss CD-1, males, in drinking water, site: lung, lesion: one or several types, types not named, dosed 104 weeks, study length 104 weeks) was 18 mg/kg/day and 21.6 mg/kg/day.

`O=NN1CCCCCCC1` gave a TD50 (rat, strain Fischer 344, males, in drinking water, site: esophagus, lesion: basal-cell carcinoma, dosed 50 weeks, study length 125 weeks) of 0.159 mg/kg/day, a TD50 (rat, strain Fischer 344, males, in drinking water, site: esophagus, lesion: several types, types named in the paper, dosed 25 weeks, study length 115 weeks) of 0.118 mg/kg/day and a TD50 (rat, strain Fischer 344, males, in drinking water, site: esophagus, lesion: several types, types named in the paper, dosed 100 weeks, study length 115 weeks) of 0.0735 mg/kg/day. The carcinogen call (rat, strain Fischer 344, males, in drinking water, site: liver, lesion: hepatocellular carcinoma, dosed 50 weeks, study length 125 weeks) was “positive”, the TD50 (rat, strain Fischer 344, males, in drinking water, site: liver, lesion: several types, types named in the paper, dosed 100 weeks, study length 115 weeks) was 0.198 mg/kg/day and the TD50 (rat, strain Fischer 344, males, in drinking water, site: tongue, lesion: basal-cell carcinoma, dosed 50 weeks, study length 125 weeks) was 0.171 mg/kg/day. For the same compound, the TD50 (rat, strain Fischer 344, males, in drinking water, site: tongue, lesion: basal-cell carcinoma, dosed 100 weeks, study length 115 weeks) was 0.105 mg/kg/day, the TD50 (rat, strain Fischer 344, males, in drinking water, site: upper gastrointestinal tract, lesion: carcinoma, dosed 25 weeks, study length 115 weeks) was 0.0363 mg/kg/day and the TD50 (rat, strain Fischer 344, males, in drinking water, site: upper gastrointestinal tract, lesion: several types, types named in the paper, dosed 25 weeks, study length 115 weeks) was 0.0512 mg/kg/day. For the same compound, the TD50 (rat, strain Fischer 344, males, in drinking water, site: upper gastrointestinal tract, lesion: several types, types named in the paper, dosed 50 weeks, study length 125 weeks) was 0.0571 mg/kg/day and the TD50 (rat, strain Fischer 344, males, in drinking water, site: upper gastrointestinal tract, lesion: several types, types named in the paper, dosed 100 weeks, study length 115 weeks) was 0.0292 mg/kg/day.
